The experiment addresses T1, N-terminally GST-tagged human full length recombinant Mps-1 kinase (Homo sapiens, UniProt P33981).
T1 construct: N-terminally GST-tagged human full length recombinant Mps-1 kinase; purchased Invitrogen, Karslruhe, Germany PV4071
T1 sequence (P33981 1-857): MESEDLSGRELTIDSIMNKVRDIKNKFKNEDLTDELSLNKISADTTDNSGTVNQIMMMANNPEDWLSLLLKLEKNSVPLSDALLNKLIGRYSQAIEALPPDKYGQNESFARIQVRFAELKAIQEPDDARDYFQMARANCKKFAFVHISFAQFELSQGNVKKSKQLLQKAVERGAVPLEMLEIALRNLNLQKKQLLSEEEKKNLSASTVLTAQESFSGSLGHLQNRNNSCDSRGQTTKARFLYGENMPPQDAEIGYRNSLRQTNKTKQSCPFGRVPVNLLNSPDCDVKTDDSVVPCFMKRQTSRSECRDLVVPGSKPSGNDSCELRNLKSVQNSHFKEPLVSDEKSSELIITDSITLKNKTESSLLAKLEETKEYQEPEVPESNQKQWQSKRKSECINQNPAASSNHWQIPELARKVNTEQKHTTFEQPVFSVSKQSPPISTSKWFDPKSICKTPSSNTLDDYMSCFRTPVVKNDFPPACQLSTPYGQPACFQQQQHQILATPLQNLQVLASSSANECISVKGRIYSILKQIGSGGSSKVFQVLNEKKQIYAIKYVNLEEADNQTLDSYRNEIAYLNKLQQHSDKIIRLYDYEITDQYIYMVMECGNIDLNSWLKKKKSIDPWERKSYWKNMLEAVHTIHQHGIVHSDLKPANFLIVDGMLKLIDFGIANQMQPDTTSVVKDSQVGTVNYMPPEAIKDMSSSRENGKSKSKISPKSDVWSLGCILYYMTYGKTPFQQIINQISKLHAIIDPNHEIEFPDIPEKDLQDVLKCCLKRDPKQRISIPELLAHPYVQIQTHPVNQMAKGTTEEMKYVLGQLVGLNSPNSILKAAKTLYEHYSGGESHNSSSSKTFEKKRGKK
The experiment can be described thus: Mps-1 kinase assay (TR-FRET). It counts as biochemical. As to conditions: Mps1 IC50 [nM], 10 μM ATP, 1 μM peptide substrate, 60 min at 22° C. Summed up:
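TR-FRET signal between a Europium anti-phospho-Ser/Thr antibody and streptavidin-XLent reported phosphorylation of a biotinylated peptide by GST-tagged full-length Mps-1. Enzyme was near 1 nM final, chosen per lot for linearity.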
(TR-FRET usually uses a lanthanide donor and a delayed reading to cut background.)
Broadly, the IC50 is the midpoint of a concentration-inhibition curve. With `CC(C)CNc1cc(-c2ccc3c(c2)OCO3)nn2c(-c3ccc(C(=O)NC4CC4)cc3)cnc12` [Example 136, 4-{6-(1,3-Benzodioxol-5-yl)-8-[(2-methylpropyl)amino]imidazo[1,2-b]pyridazin-3-yl}-N-cyclopropylbenzamide], the IC50 turned out to be 4 nM.

As to `CC(C)CNc1cc(-c2ccnn2C)nn2c(-c3ccc(C(=O)NC4CC4)cc3)cnc12` [Example 137, N-cyclopropyl-4-{8-[(2-methylpropyl)amino]-6-(1-methyl-1H-pyrazol-5-yl)imidazo[1,2-b]pyridazin-3-yl}benzamide], the IC50 is under 1 nM. Take `CC(C)CNc1cc(-c2cccnc2)nn2c(-c3ccc(C(=O)NC4CC4)cc3)cnc12` [Example 138, N-cyclopropyl-4-{8-[(2-methylpropyl)amino]-6-(pyridin-3-yl)imidazo [1,2-b]pyridazin-3-yl} benzamide]: the half-maximal inhibitory concentration (IC50) was 2 nM. In the case of `CC(C)CNc1cc(-c2ccccc2O)nn2c(-c3ccc(C(=O)NC4CC4)cc3)cnc12` [Example 139, N-cyclopropyl-4-{6-(2-hydroxyphenyl)-8-[(2-methylpropyl)amino]imidazo[1,2-b]pyridazin-3-yl}benzamide], the IC50 is 3.7 nM. For `CC(C)CNc1cc(-c2cccc(O)c2)nn2c(-c3ccc(C(=O)NC4CC4)cc3)cnc12` [Example 140, N-cyclopropyl-4-{6-(3-hydroxyphenyl)-8-[(2-methylpropyl)amino]imidazo[1,2-b]pyridazin-3-yl}benzamide] the value was 3.9 nM; for `CC(C)CNc1cc(-c2ccc(O)cc2)nn2c(-c3ccc(C(=O)NC4CC4)cc3)cnc12` [Example 141, N-cyclopropyl-4-{6-(4-hydroxyphenyl)-8-[(2-methylpropyl)amino]imidazo[1,2-b]pyridazin-3-yl}benzamide], 2.4 nM; for `CC(C)CNc1cc(-c2ccc(S(C)(=O)=O)cc2)nn2c(-c3ccc(C(=O)NC4CC4)cc3)cnc12` [Example 142, N-cyclopropyl-4-{8-[(2-methylpropyl)amino]-6-[4-(methylsulfonyl)phenyl]imidazo[1,2-b]pyridazin-3-yl}benzamide], 1.4 nM. `CC(C)CNc1cc(-c2cncnc2)nn2c(-c3ccc(C(=O)NC4CC4)cc3)cnc12` [Example 143, N-cyclopropyl-4-{8-[(2-methylpropyl)amino]-6-(pyrimidin-5-yl)imidazo [1,2-b]pyridazin-3-yl} benzamide]: the IC50 came out at 4.7 nM.

Take `CC(C)CNc1cc(-c2ccc3ncccc3c2)nn2c(-c3ccc(C(=O)NC4CC4)cc3)cnc12` [Example 144, N-cyclopropyl-4-{8-[(2-methylpropyl)amino]-6-(quinolin-6-yl)imidazo [1,2-b]pyridazin-3-yl} benzamide]: the IC50 amounted to 2.3 nM. Turning to `CC(C)CNc1cc(-c2ccc3nccn3c2)nn2c(-c3ccc(C(=O)NC4CC4)cc3)cnc12` [Example 145, N-cyclopropyl-4-{6-(imidazo[1,2-a]pyridin-6-yl)-8-[(2-methylpropyl)amino]imidazo[1,2-b]pyridazin-3-yl}benzamide], the half-maximal inhibitory concentration (IC50) was under 1 nM. On to `CNC(=O)Nc1ccc(-c2cc(NCC(C)C)c3ncc(-c4ccc(C(=O)NC5CC5)cc4)n3n2)cc1` [Example 146, N-cyclopropyl-4-(6-{4-[(methylcarbamoyl)amino]phenyl}-8-[(2-methylpropyl)amino]imidazo[1,2-b]pyridazin-3-yl)benzamide], for which the IC50 was 3.8 nM. With `CC(C)CNc1cc(-c2cncc(C#N)c2)nn2c(-c3ccc(C(=O)NC4CC4)cc3)cnc12` [Example 147, 4-{6-(5-Cyanopyridin-3-yl)-8-[(2-methylpropyl)amino]imidazo[1,2-b]pyridazin-3-yl}-N-cyclopropylbenzamide], the half-inhibitory concentration (IC50) came out at 2.2 nM. For `Cc1nnc(-c2ccc(-c3cc(NCC(C)C)c4ncc(-c5ccc(C(=O)NC6CC6)cc5)n4n3)cc2)o1` [Example 148, N-cyclopropyl-4-{6-[4-(5-methyl-1,3,4-oxadiazol-2-yl)phenyl]-8-[(2-methylpropyl)amino]imidazo[1,2-b]pyridazin-3-yl}benzamide], the IC50 amounted to 1.5 nM. For the compound `CNC(=O)c1ccc(-c2cc(NCC(C)C)c3ncc(-c4ccc(C(=O)NC5CC5)cc4)n3n2)cn1` [Example 149, 5-{3-[4-(Cyclopropylcarbamoyl)phenyl]-8-[(2-methylpropyl)amino]imidazo[1,2-b]pyridazin-6-yl}-N-methylpyridine-2-carboxamide], the IC50 amounted to 2.2 nM. Turning to `CC(C)CNc1cc(-c2ccc(NC(=O)N(C)C)cc2)nn2c(-c3ccc(C(=O)NC4CC4)cc3)cnc12` [Example 150, N-cyclopropyl-4-(6-{4-[(dimethylcarbamoyl)amino]phenyl}-8-[(2-methylpropyl)amino]imidazo[1,2-b]pyridazin-3-yl)benzamide], the concentration for half-maximal inhibition (IC50) stood at 3.7 nM. For `CC(C)CNc1cc(-c2ccc3[nH]c(=O)[nH]c3c2)nn2c(-c3ccc(C(=O)NC4CC4)cc3)cnc12` [Example 151, N-cyclopropyl-4-{8-[(2-methylpropyl)amino]-6-(2-oxo-2,3-dihydro-1H-benzimidazol-5-yl)imidazo[1,2-b]pyridazin-3-yl}benzamide], the IC50 was determined as 3.1 nM.

As to `Cc1cc(-c2cnc3c(NCC(C)(C)O)cc(-c4cccc(CO)c4)nn23)ccc1C(=O)NC1CC1` [Example 153, N-cyclopropyl-4-{6-[3-(hydroxymethyl)phenyl]-8-[(2-hydroxy-2-methylpropyl)amino]imidazo[1,2-b]pyridazin-3-yl}-2-methylbenzamide], the IC50 came to 3.6 nM. For `Cc1cc(-c2cnc3c(NCC(C)(C)O)cc(-c4cnn(C)c4)nn23)ccc1C(=O)NC1CC1` [Example 154, N-cyclopropyl-4-{8-[(2-hydroxy-2-methylpropyl)amino]-6-(1-methyl-1H-pyrazol-4-yl)imidazo[1,2-b]pyridazin-3-yl}-2-methylbenzamide] the value was 25 nM; for `Cc1cc(-c2cnc3c(NCC(C)(C)O)cc(-c4ccc(CO)cc4)nn23)ccc1C(=O)NC1CC1` [Example 155, N-cyclopropyl-4-{6-[4-(hydroxymethyl)phenyl]-8-[(2-hydroxy-2-methylpropyl)amino]imidazo[1,2-b]pyridazin-3-yl}-2-methylbenzamide], 3.6 nM; for `Cc1cc(-c2cnc3c(NCC(C)(C)O)cc(-c4cccnc4)nn23)ccc1C(=O)NC1CC1` [Example 156, N-cyclopropyl-4-{8-[(2-hydroxy-2-methylpropyl)amino]-6-(pyridin-3-yl)imidazo[1,2-b]pyridazin-3-yl}-2-methylbenzamide], 5.1 nM.

As for `Cc1cc(-c2cnc3c(NCC(C)(C)O)cc(-c4ccoc4)nn23)ccc1C(=O)NC1CC1` [Example 157, N-cyclopropyl-4-{6-(furan-3-yl)-8-[(2-hydroxy-2-methylpropyl)amino]imidazo[1,2-b]pyridazin-3-yl}-2-methylbenzamide], the IC50 was found to be 12 nM.

On to `CCOc1ccc(-c2cc(NCC(C)(C)O)c3ncc(-c4ccc(C(=O)NC5CC5)c(C)c4)n3n2)cn1` [Example 158, N-cyclopropyl-4-{6-(6-ethoxypyridin-3-yl)-8-[(2-hydroxy-2-methylpropyl)amino]imidazo[1,2-b]pyridazin-3-yl}-2-methylbenzamide], for which the IC50 came out at 6.4 nM.

Source of the values: patent publication US9255100B2 (BAYER INTELLECTUAL PROPERTY GMBH, priority 2010, dated 2016).
